Experimental data published in US20230158179A1, “RADIOPHARMACEUTICAL CONJUGATE COMPOSITIONS AND USES THEREOF” (RayzeBio, Inc., priority 2020, published 2023).
Read-outs that look alike come from different tables or passages of the source. One block for each compound: values may come before it. Numbered stars: 1 amine (or outer) side, 2 acyl side, 3 side chain; on linkers, the order of the positions; unused ones are H or OH. Bridge positions count the residues as written; N and C are the ends. Square brackets hold non-standard residues; d marks the D form. Peptide text beside a SMILES is read from it. Trp(6-Cl) = N[C@@H](Cc1c[nH]c2cc(Cl)ccc12)C(=O)O; Phe(3-Ph) = N[C@@H](Cc1cccc(-c2ccccc2)c1)C(=O)O; Bip = N[C@@H](Cc1ccc(-c2ccccc2)cc1)C(=O)O; Phe(3-Cl) = N[C@@H](Cc1cccc(Cl)c1)C(=O)O; γGlu = O=C(O)[C@H](CCC(=O)[*:2])N[*:1]; NMeY = CN[C@@H](Cc1ccc(O)cc1)C(=O)O; NMeF = CN[C@@H](Cc1ccccc1)C(=O)O; hPhe = N[C@@H](CCc1ccccc1)C(=O)O; 3Pal = N[C@@H](Cc1cccnc1)C(=O)O; Ahp(2) = CCCCC[C@H](N)C(=O)O; Cba = N[C@@H](CC1CCC1)C(=O)O; Chg = N[C@H](C(=O)O)C1CCCCC1; NMeA = CN[C@@H](C)C(=O)O; βAla = NCCC(=O)O; Sar = CNCC(=O)O

Legend:
FOLR1 = target: T1, FOLR1 (Homo sapiens, UniProt P15328); assay: Peptide binding to FOLR1 (SPR, Biacore 8K); details: FOLR1-Fc-Avi immobilized, 25° C., Langmuir 1:1 binding model
T1 construct: purchased AcroBiosystems F01-H82F9
T1 sequence (P15328 25-234): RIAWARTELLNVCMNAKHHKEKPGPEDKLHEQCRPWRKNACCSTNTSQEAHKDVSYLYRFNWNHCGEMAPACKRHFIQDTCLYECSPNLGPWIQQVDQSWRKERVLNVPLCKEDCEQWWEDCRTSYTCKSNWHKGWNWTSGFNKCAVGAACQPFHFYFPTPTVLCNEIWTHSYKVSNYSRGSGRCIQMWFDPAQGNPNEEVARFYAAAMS
Experimental: For analysis of peptide binding, a Biacore 8K instrument was used utilizing either a SA chip or a CAP chip. FOLR1-Fc-Avi (AcroBiosystems, F01-H82F9) was immobilized on the chip using streptavidin-biotin chemistry at 25° C. in PBS-P+ buffer (20 mM phosphate, 2.7 mM KCl, 137 mM NaCl, 0.05% Tween-20, pH 7.4) to a level of 500-2500 RU (dependent on the analyte molecular weight). A dilution series of peptides was prepared in this buffer with a final DMSO concentration of 1% with a top peptide concentration at 50 or 100 nM and 8 further 2-fold dilutions. The SPR analysis was run at 25° C. at a flow rate of 100 μL/min in PBS-P+ with 1% DMSO running buffer and with a 120 second association and 10,000 second dissociation using single cycle kinetics methodology. All data was analyzed using Biacore Insight Evaluation Software version 3.) Data was fitted using a Langmuir 1:1 binding model.
Kd values of peptides of the present disclosure are given in Table 8 below, where Kd 0 nM<A≤10 nM.

PSMA = target: T2, PSMA (Homo sapiens, UniProt Q04609); assay: Peptide binding to PSMA (SPR, Biacore 8K); details: His-Avi-PSMA immobilized, 25° C., Langmuir 1:1 binding model
T2 construct: purchased AcroBiosystems PSA-H82Qb
T2 sequence (Q04609 whole entry): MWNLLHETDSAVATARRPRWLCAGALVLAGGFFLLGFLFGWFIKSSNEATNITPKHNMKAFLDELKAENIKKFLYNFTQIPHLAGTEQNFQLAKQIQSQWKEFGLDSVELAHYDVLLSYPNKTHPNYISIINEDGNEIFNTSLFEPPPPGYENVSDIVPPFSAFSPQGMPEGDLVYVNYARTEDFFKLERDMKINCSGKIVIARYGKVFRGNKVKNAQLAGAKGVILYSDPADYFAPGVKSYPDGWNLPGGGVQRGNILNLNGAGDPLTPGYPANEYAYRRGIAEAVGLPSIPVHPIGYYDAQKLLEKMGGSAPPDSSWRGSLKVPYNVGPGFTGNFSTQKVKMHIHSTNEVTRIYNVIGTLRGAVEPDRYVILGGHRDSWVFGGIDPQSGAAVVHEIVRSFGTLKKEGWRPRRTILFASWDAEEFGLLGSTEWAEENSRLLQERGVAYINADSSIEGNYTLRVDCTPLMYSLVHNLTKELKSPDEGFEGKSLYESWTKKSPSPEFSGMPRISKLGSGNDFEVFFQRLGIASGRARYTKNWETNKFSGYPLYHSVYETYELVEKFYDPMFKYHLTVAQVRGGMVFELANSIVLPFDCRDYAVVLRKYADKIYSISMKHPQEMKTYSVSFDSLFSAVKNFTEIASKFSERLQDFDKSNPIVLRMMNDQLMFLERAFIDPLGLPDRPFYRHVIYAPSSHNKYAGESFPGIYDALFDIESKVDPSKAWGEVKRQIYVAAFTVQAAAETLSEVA
Experimental: For analysis of peptide binding, a Biacore 8K instrument was used utilizing a SA chip. His-Avi-PSMA (AcroBiosystems, PSA-H82Qb) was immobilized on the chip using streptavidin-biotin chemistry at 25° C. in HBS-P+ buffer (10 mM HEPES, 150 mM NaCl, 0.05% Tween-20, pH 7.4) to a level of 800-2200 RU (dependent on the analyte molecular weight). A dilution series of peptides was prepared in this buffer with a final DMSO concentration of 1% with a top peptide concentration between 10-100 nM and 8 further 2-fold dilutions. The SPR analysis was run at 25° C. at a flow rate of 100 μL/min in HBS-P+ with 1% DMSO running buffer and with a 120 second association and 10,000 second dissociation using single cycle kinetics methodology. All data was analyzed using Biacore Insight Evaluation Software version 3. Data was fitted using a Langmuir 1:1 binding model.

[1] = target: T3, Human Serum Albumin (HSA) (Homo sapiens, UniProt P02768); assay: HSA-HPLC plasma protein binding (immobilized human serum albumin-HPLC); format: in vitro ADME; details: HSA-HPLC method, room temperature, estimated from gradient retention times, read-out: % Bound to HSA at r.t.
T3 construct: purchased ChiralPAK HSA HPLC column, 50×4 mm
T3 sequence (P02768 25-609): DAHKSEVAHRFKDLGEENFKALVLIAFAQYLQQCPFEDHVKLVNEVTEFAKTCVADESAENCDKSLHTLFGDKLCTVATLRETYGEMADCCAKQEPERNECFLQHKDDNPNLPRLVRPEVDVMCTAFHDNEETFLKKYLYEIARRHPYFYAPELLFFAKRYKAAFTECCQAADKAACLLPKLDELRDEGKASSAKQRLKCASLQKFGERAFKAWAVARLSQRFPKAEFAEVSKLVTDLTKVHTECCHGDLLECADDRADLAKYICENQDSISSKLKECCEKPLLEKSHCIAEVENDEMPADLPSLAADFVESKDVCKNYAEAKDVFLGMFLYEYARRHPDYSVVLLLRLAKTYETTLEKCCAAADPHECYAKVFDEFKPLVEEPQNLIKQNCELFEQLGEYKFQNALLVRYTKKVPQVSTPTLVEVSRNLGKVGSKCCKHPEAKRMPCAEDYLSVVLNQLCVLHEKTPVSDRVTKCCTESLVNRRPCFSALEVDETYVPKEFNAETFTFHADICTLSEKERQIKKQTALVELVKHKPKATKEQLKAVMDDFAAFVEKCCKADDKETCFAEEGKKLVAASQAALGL
Text: • HSA-HPLC method (measurement of drug protein binding by immobilized human serum albumin-HPLC). A 13-minute HPLC (Thermo Vanquish Horizon with Diode Array Detector) gradient method was used to determine the HSA (Human Serum Albumin) binding of novel compounds using a chemically bonded protein stationary phase (ChiralPAK HSA HPLC column, 50×4 mm). The HSA binding values were derived from the gradient retention times that were converted to the logarithm of the equilibrium constant using data from a calibration set of molecules. The % bound to plasma values for the calibrator compounds were converted to the linear free energy values using the following equation: LogK=log[% PPB/(101−% PPB)]. The logarithmic value of the gradient retention times from the experiment were plotted against the linearized values of the percent bound to plasma. The slope and the intercept were used to convert the retention times to linear free energy values (LogK), from which the estimated % protein binding was calculated using the following equation: % Binding=[(101·10^LogK)/(1+10^LogK)]. Aqueous mobile phase (A) was 50 mM ammonium acetate solution, ph7.4 and the organic mobile phase (B) was 2-propanol. […] Chromatograms were recorded at 280 nm by a diode array UV absorption detector. […]

Trop-2 = target: T4, Trop-2 (Homo sapiens, UniProt P09758); assay: Conjugate binding to Trop-2 (BLI, GatorPrime); details: biotinylated peptides immobilized, His-tagged Trop-2, 30° C., Langmuir 1:1 binding model
T4 construct: purchased AcroBiosystems TR2-H5223
T4 sequence (P09758 27-323): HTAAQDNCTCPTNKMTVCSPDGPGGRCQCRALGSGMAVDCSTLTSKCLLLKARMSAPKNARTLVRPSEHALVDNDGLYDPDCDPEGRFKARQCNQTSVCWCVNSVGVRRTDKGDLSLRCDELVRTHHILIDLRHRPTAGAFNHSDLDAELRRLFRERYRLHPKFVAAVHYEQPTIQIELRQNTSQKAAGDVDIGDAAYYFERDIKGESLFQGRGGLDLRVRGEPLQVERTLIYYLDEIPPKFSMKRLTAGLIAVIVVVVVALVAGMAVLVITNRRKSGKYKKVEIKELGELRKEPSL
Experimental: For analysis of peptide binding, a GatorPrime instrument was used utilizing SMAP probes. Biotinylated peptides of 1 μM were immobilized on the sensor using streptavidin-biotin chemistry at 25° C. in HBS-P+ buffer (10 mM HEPES, 150 mM NaCl, 0.05% Tween-20, pH 7.4). A dilution series of His-tagged Trop-2 (AcroBiosystems, TR2-H5223) was prepared in this buffer with a top peptide concentration at 100 nM and 6 further 3-fold dilutions. The BLI analysis was run at 30° C. with a 120 second association and 120 second dissociation. All data was analyzed using GatorLaunch software. Data was fitted using a Langmuir 1:1 binding model.

[2] = system: PSMA expressing cells (LnCap); assay: FACS binding to PSMA expressing cells; format: cell-based; details: biotinylated compounds
Experimental: LnCap cells, 2e^6 cells/ml
SYTOX viability dye • (1) Washed cells with PBS once. • (2) Incubated cells with 5 ml of Accutase at 37 degrees for 2-5 minutes. Gently rocking the flask until the layer of cells pilling off • (3) Added 15 ml of PBS into flask and transferred to a 50 ml conical tube • (4) Spun down 1600 rpm 3 minutes • (5) Resuspended in 2 ml of PBS, and counted cells • (6) Adjusted cell density to 2e6 cells/ml with PBS and then added 100 uL/well to the plate and mixed well • (7) Spun down 1600 rpm 3 minutes • (8) Add 100 uL of compound/well respectively. Prepared serial dilute compound in PBS, 1 uM to 0.01 nM, 1:3 dilution, 10 point curve • (9) Incubated for 50 minutes total • (10) Washed wells with 150 uL PBS and spun down 1600 rpm 3 min and dumped • (11) Added SA-A647, 1:1000 dilution in FACS buffer, 100 ul/well to respective wells • (12) Incubated for 50 min on ice • (13) Washed with 200 uL PBS spun 1600 rpm 3 min dump • (14) Resuspended in 100 uL SYTOX, 1:1000 dilution in FACS buffer • (15) Acquired

- Kd (FOLR1): < 10 nM
Compound: CC(C)C[C@@H]1NC(=O)[C@H](CCCNC(=N)N)NC(=O)[C@H](C)NC(=O)CSC[C@@H](C(N)=O)NC(=O)[C@H](Cc2ccc(O)cc2)NC(=O)[C@H](Cc2c[nH]c3ccccc23)NC(=O)[C@H](Cc2ccc(O)cc2)N(C)C(=O)[C@H](Cc2ccc(O)cc2)N(C)C(=O)[C@H]([C@@H](C)O)NC(=O)[C@H](CC(=O)O)NC(=O)[C@H](Cc2ccc(O)cc2)NC(=O)[C@H](CC(=O)O)NC(=O)[C@H](Cc2ccccc2)N(C)C1=O [Compound P-10] ({CH2CO}-ARL[NMeF]DYDT[NMeY][NMeY]WYC-NH2; thioether N-13)

- Kd (FOLR1): < 10 nM
Compound: C[C@@H](O)[C@@H]1NC(=O)[C@H](CC(=O)O)NC(=O)[C@H](Cc2cccc(Cl)c2)NC(=O)[C@H](CC(=O)O)NC(=O)[C@H](Cc2ccccc2)N(C)C(=O)[C@H](C2CCCCC2)NC(=O)[C@H](CCCNC(=N)N)NC(=O)[C@H](CC(=O)O)NC(=O)CSC[C@@H](C(N)=O)NC(=O)[C@H](Cc2ccc(O)cc2)NC(=O)[C@H](Cc2c[nH]c3ccccc23)NC(=O)[C@H](Cc2ccc(O)cc2)N(C)C(=O)[C@H](Cc2ccc(O)cc2)N(C)C1=O [Compound P-11] ({CH2CO}-DR[Chg][NMeF]D[Phe(3-Cl)]DT[NMeY][NMeY]WYC-NH2; thioether N-13)

- Kd (PSMA): < 10 nM
Compound: CC(C)[C@@H]1NC(=O)[C@H](CC(=O)O)NC(=O)[C@H](Cc2cccc(-c3ccccc3)c2)NC(=O)[C@H](Cc2c[nH]c3ccccc23)NC(=O)CSC[C@@H](C(N)=O)NC(=O)[C@H](CC(=O)O)NC(=O)[C@H](Cc2cccc(-c3ccccc3)c2)NC(=O)[C@H](Cc2c[nH]c3ccccc23)NC(=O)[C@H](CC2CCC2)NC(=O)[C@H](CC(=O)O)NC(=O)[C@H](CO)NC(=O)[C@H](CC(=O)O)NC1=O [Compound P-21] ({CH2CO}-W[Phe(3-Ph)]DVDSD[Cba]W[Phe(3-Ph)]DC-NH2; thioether N-12)

- fraction unbound ([1]; plasma): 0.1 to 0.3
Compound: CC[C@H](C)[C@@H]1NC(=O)[C@H](Cc2cccnc2)NC(=O)[C@@H](Cc2ccccc2)NC(=O)CSC[C@@H](C(N)=O)NC(=O)[C@H]([C@@H](C)CC)NC(=O)[C@H]([C@@H](C)CC)NC(=O)[C@H](Cc2ccccc2)NC(=O)[C@H](Cc2ccc(O)cc2)N(C)C(=O)[C@H](CC(=O)O)NC(=O)[C@H](CO)NC(=O)[C@H](C)N(C)C(=O)[C@H](C)N(C)C(=O)[C@H](Cc2cccnc2)NC(=O)[C@H](CC(C)C)NC1=O [Compound P-30] ({CH2CO}-[dF][3Pal]IL[3Pal][NMeA][NMeA]SD[NMeY]FIIC-NH2; thioether N-14)

- EC50 [2]: 100 to 1000 nM
Compound: P-22 ([NMeF]DDSVWD[hPhe]YC-NH2; bridge N-10; not fully specified (N-terminus, bridges)) [Compound P-22]

More lines, now with the values behind:

Compound: C[C@@H](O)[C@@H]1NC(=O)[C@H](CC(=O)O)NC(=O)[C@H](Cc2ccc(O)cc2)NC(=O)[C@H](CC(=O)O)NC(=O)[C@H](Cc2ccccc2)N(C)C(=O)[C@H](C2CCCCC2)NC(=O)[C@H](CCCNC(=N)N)NC(=O)[C@H](CC(=O)O)NC(=O)CSC[C@@H](C(N)=O)NC(=O)[C@H](Cc2ccc(O)cc2)NC(=O)[C@H](Cc2c[nH]c3ccccc23)NC(=O)[C@H](Cc2ccc(O)cc2)N(C)C(=O)[C@H](Cc2ccc(O)cc2)N(C)C1=O [Compound P-12] ({CH2CO}-DR[Chg][NMeF]DYDT[NMeY][NMeY]WYC-NH2; thioether N-13)
- Kd (FOLR1): < 10 nM

Compound: CCCCC[C@@H]1NC(=O)CN(C)C(=O)[C@H](C(C)C)NC(=O)[C@H](Cc2c[nH]c3cc(Cl)ccc23)NC(=O)CNC(=O)[C@H]([C@@H](C)O)NC(=O)[C@H](Cc2ccccc2)N(C)C(=O)CNC(=O)[C@H](CCCNC(=N)N)NC(=O)[C@H](Cc2ccc(O)cc2)NC(=O)[C@H](Cc2cccc(Cl)c2)NC(=O)[C@H](C(C)C)NC(=O)[C@H](C)NC(=O)CSC[C@@H](C(N)=O)NC1=O [Compound P-31] ({CH2CO}-AV[Phe(3-Cl)]YRG[NMeF]TG[Trp(6-Cl)]V[Sar][Ahp(2)]C-NH2; thioether N-14)
- fraction unbound [1]: 0.1 to 0.3

Compound: C-40: "Conjugate C-40 contains a monocyclic peptide P-40 of Table 3"; made from peptide-3 and DOTA-OSu ([dA]D[Bip]IYPA[Bip]SSES[NMeF]C[βAla][dK](PEG‑DOTA)[γGlu][γGlu]-NH2; bridge N-14; not fully specified (bridges)) [Compound C-40]
- Kd (Trop-2): 10 to 1000 nM
